Measured values reported in patent publication US10721929B2, “Heterocyclic compound and harmful-arthropod-controlling agent containing same” (Sumitomo Chemical Company, Limited, priority 2016, dated 2020).

Test system: western corn rootworm
Assay: Test Example 5: corn seedling immersion test, western corn rootworm larvae
Type: in vivo
Conditions: Zea mays, 120 h, corn seedlings immersed 30 seconds, ten 2-instar larvae, five days later, read-out: mortality rate of insects
Description: 1 mg of each test compound is dissolved in 50 μL of a mixed solution of polyoxyethylene sorbitan monococoate:acetone=5.95 (volume ratio). To the resultant is added water containing 0.03% by volume of a spreading agent, to prepare a diluted solution containing a predetermined concentration of the test compound.
Seeds of corn (Zea mays) are seeded onto a tray lined with wet Kimwipes, After the corn has grown for 5 days, die entire seedlings are immersed into the diluted solution for 30 seconds. Thereafter, two seedlings are put in a petri dish (diameter of 90 mm), and ten 2-instar larvae of western corn rootworm are released thereinto. Five days later, the number of dead insects is counted, and a mortality rate of insects is calculated by the following expression. Mortality rate of insects (%)=(number of dead insects/10)×100.

CCSc1c(-c2ccc(OCC(F)(F)C(F)(F)F)cn2)nc2ccc(C(F)(F)F)cn12 [Compound 1]
mortality at 500 ppm: ≥ 80%
